Data set [1] can be described thus: Encapsulation of mRNA nanoparticles with lipid amines using Ribogreen assay. In kind it is physicochemical. On the procedure:
(§1) Lipids are dissolved in ethanol at a concentration of 24 mg/mL and molar ratios of 49.0:11.2:39.3:0.5 (IL1:DSPC:cholesterol:PEG-DMG-2K) and mixed with the acidification buffer (45 mM acetate buffer at pH 4). The lipid solution and acidification buffer are mixed using a multi-inlet vortex mixer at a 3:7 volumetric ratio of lipid:buffer for mixer 1 and mixer 2 and a 1:3 volumetric ratio of lipid:buffer (25% ethanol) for mixer 3. After a 5 second residence time, the resulting nanoparticles are mixed with 55 mM sodium acetate at pH 5.6 at a volumetric ratio of 5:7 of nanoparticle:buffer. See Table 2a for mixing parameters. The resulting dilute nanoparticles are then buffer exchanged and concentrated using tangential flow filtration (TFF) into a final buffer containing 5 mM sodium acetate pH 5.0. Then a 70% sucrose solution in 5 mM acetate buffer at pH 5 is subsequently added.
(§2) The resulting nanoparticles at a lipid concentration of 7.33 mg/mL in 5 mM acetate (pH 5) and 75 g/L sucrose are mixed with mRNA (luciferease or CFTR) at a concentration of 0.625 mg/mL in 42.5 mM sodium acetate pH 5.0, with N:P of 4.93. The nanoparticle solution and nanoparticles are mixed using a multi-inlet vortex mixer at a 3:2 volumetric ratio of nanoparticle:mRNA. Once loaded with mRNA, these intermediate nanoparticles undergo a 300 second residence time prior addition of neutralization buffer containing 120 mM TRIS pH 8.12 at a volumetric ratio of 5:1 of nanoparticle:buffer.
(§3) For HeLa studies evaluating luciferase protein expression, PEG-DMG-2K dissolved in a 20 mM TRIS buffer (pH 7.5) is added to the neutralized intermediate nanoparticle solution at a ratio of 1:6, bringing the solution to the final molar ratios of IL1:DSPC:cholesterol:PEG-DMG-2K of 48.5:11.1:38.9:1.5%. This nanoparticle formulation is then modified with lipid amines. In a typical example, nanoparticle formulation at a concentration of 0.18 mg/mL mRNA and a 0.56 mL volume is modified with lipid amine SA50 (467.2 nmol) prepared in buffer containing 20 mM TRIS, 14.3 mM sodium acetate, 32 g/L sucrose and 140 mM NaCl-pH 7.5 at a volumetric ratio of 1:1 of nanoparticle:buffer.
(§4) For HeLa studies evaluating CFTR protein expression, the intermediate nanoparticle formulation (1 mL, 0.415 mg mRNA) is mixed with a buffer containing 20 mM TRIS (pH 7.5), 0.9 mg/mL PEG-DMG-2K and lipid amine SA50 (647.1 nmol) at a volumetric ratio of 6:1 of nanoparticle:buffer. The resulting nanoparticle suspension undergoes concentration using a centrifugal filtration device (100 kDa molecular weight cut-off) and is diluted in running buffer (20 mM TRIS, 14.3 mM sodium acetate, and 32 g/L sucrose, pH 7.5) with a 300 mM NaCl solution to a final buffer matrix containing 70 mM NaCl.
(§5) Both resulting nanoparticle suspensions are filtered through a 0.8/0.2 μm capsule filter and filled into glass vials at an mRNA strength of about 0.1-1 mg/mLBliophysical data (Diameter and PDI from DLS measurements and Encapsualtion using Ribogreen assay) for both luciferase and CFTR mRNA nanoparticles with lipid amines is shown in Tables 2c and d, respectively.

The nature of data set [2]: Diameter and PDI from DLS measurements of mRNA nanoparticles with lipid amines. It is filed as physicochemical. As to the method: as §1, §2, §3, §4, §5
The subject of data set [3] is HeLa cells. Kind of data set: CFTR Protein Expression Assay in HeLa Cells. Particulars: LNPs encapsulating CFTR mRNA, N=4 wells; 5 h serum-free then 24 h; immunofluorescence vs PBS control. It is filed as cell-based, Human. On the procedure:
as §4
(§6) Lipid nanoparticle compositions were prepared in a manner analogous to that in example 2. To evaluate LNP cellular uptake and protein expression In Vitro, HeLa cells from ATCC.org (ATCC CCL-2) are used. The cells are cultured in complete Minimum Essential Medium (MVEM) and are plated in 96 well Cell Carrier Ultra plate with PDL coated surface (PerkinElmer) prior to running an experiment.
Buffer control (PBS) and LNPs encapsulating cystic fibrosis transmembrane conductance regulator (CFTR) mRNA were dosed with MEM media in the absence of serum (N=4 replicate wells). LNP transfected cells were incubated for 5 h, followed by media removal and supplementation with complete MEM media. Cells were further incubated in complete MEM media overnight (24 h).
Following 24 hr incubation, the cells were fixed with PFA and processed for immunofluorescence (IF) using an anti-CFTR rabbit monoclonal antibody. Briefly, the cells were permeabilized with 0.5% TX-100 for 10 min, blocked with 3% bovine serum albumin (BSA)+PBST for 1 hr at room temperature, and incubated with primary anti-CFTR monoclonal antibody overnight at 4° C. Following primary antibody incubation, the cells were incubated with Alexa 488 conjugated secondary antibody for 30 mi and stained with DAPI and HCS CellMask Blue stain. Between different incubation steps the cells were either washed with PBS or PBST. Cells were imaged using Opera Phoenix spinning disk confocal microscope (PerkinElmer), and CFTR protein expression was detected using the 488 nm channel. The image analysis was performed in Harmony 4.9, with main analysis output being CFTR intensity per cell. The results shown in Table 3b show fold-change in CFTR signal intensity per cell compared to buffer (PBS) control (NA=not available).

In data set [4] the test system is HeLa cells. The data set is described as follows: Luciferase Protein Expression Assay in HeLa Cells. It is filed as cell-based, Human. Particulars: LNPs encapsulating Luciferase mRNA, 25 ng per well, N=4 wells; 5 h serum-free then 24 h; ONE-Glo. As to the method: as §3, §6
Cells were transfected with buffer control (PBS) or LNPs encapsulating Luciferase mRNA (25 ng per well; N=4 replicate wells) in serum-free MEM media. LNP transfected cells were incubated for 5 h, followed by media removal and supplementation with complete MEM media. Cells were further incubated in complete MEM media overnight (24 h). Following the 24 hr incubation, luciferase protein expression was measured using the ONE-Glo™ Luciferase Assay (Promega). Cells were lysed using 1× Passive Lysis Buffer (Cat. #E194A) for 10 min in a microplate mixer at room temperature. Luciferase in the supernatant was measured by adding Luciferase Assay Reagent (Cat. #E151A) containing luciferin. Bioluminescence was then immediately measured on a Synergy H1 plate reader (BioTek). The results shown in Table 3a show the Average Relative Light Units (RLU) of each sample tested.

[5] abbreviates: CFTR mRNA nanoparticle with lipid amine.
Where [6] appears, read: Luciferase mRNA nanoparticle modified with lipid amine.

We go through 7 compounds from patent publication US20260109732A1, “LIPID AMINES” (ModernaTX, Inc., priority 2021, published 2026).

Structures can show the parent of a compound that is named as a salt.

On to `CC(C)CCC[C@@H](C)[C@H]1CC[C@H]2[C@@H]3CC=C4C[C@@H](OC(=O)CC(=O)N(CCCN)CCCCNCCCN)CC[C@]4(C)[C@H]3CC[C@]12C.Cl.Cl.Cl` [SA59, (3S,8S,9S,10R,13R,14S,17R)-10,13-Dimethyl-17-((R)-6-methylheptan-2-yl)-2,3,4,7,8,9,10,11,12,13,14,15,16,17-tetradecahydro-1H-cyclopenta[a]phenanthren-3-yl 3-((3-aminopropyl)(4-((3-aminopropyl)amino)butyl)amino)-3-oxopropanoate trihydrochloride], for which the “% Encapsulation (Ribogreen)” value in data set [1] (setting [5]) stood at 99.6%; in data set [1] (setting [6]) it was 99.7%. For the same compound, the “Diameter (nm)” value in data set [2] (setting [5]) is recorded as 76.9 nm; in data set [2] (setting [6]) it was 74 nm. Besides, the PDI in data set [2] (setting [5]) and in data set [2] (setting [6]) was 0.15 throughout. Besides, the “Average fold-change in CFTR signal intensity per cell compared to buffer control ± standard deviation” value with HeLa cells [3] is 5.6 ± 0.5 fold-change. For the same compound, the “Average Relative Light Units ± Standard Deviation” value in the data set on HeLa cells [4] was 17590.1 ± 6267.4 Relative Light Units.

On to `CC(C)CCC[C@@H](C)[C@H]1CC[C@H]2[C@@H]3CC=C4C[C@@H](OC(=O)N(CCCCNC(C)CCN)C(C)CCN)CC[C@]4(C)[C@H]3CC[C@]12C` (stereo partly drawn) [SA74, (3S,8S,9S,10R,13R,14S,17R)-10,13-dimethyl-17-((R)-6-methylheptan-2-yl)-2,3,4,7,8,9,10,11,12,13,14,15,16,17-tetradecahydro-1H-cyclopenta[a]phenanthren-3-yl (4-aminobutan-2-yl)(4-((4-aminobutan-2-yl)amino)butyl)carbamate trihydrochloride], for which the “% Encapsulation (Ribogreen)” value in data set [1] (setting [6]) stood at 99.1%. For the same compound, in data set [2] (setting [6]), the “Diameter (nm)” value is 75 nm and the PDI is recorded as 0.19. For the same compound, the “Average Relative Light Units ± Standard Deviation” value in the data set with HeLa cells [4] was determined as 23899.2 ± 6943.7 Relative Light Units.

As to `CC[C@H](CC[C@@H](C)[C@H]1CC[C@H]2[C@@H]3CC=C4C[C@@H](OC(=O)N(CCCCNC(C)CCN)C(C)CCN)CC[C@]4(C)[C@H]3CC[C@]12C)C(C)C` (stereo partly drawn) [SA113, (3S,8S,9S,10R,13R,14S,17R)-17-((2R,5R)-5-ethyl-6-methylheptan-2-yl)-10,13-dimethyl-2,3,4,7,8,9,10,11,12,13,14,15,16,17-tetradecahydro-1H-cyclopenta[a]phenanthren-3-yl (4-aminobutan-2-yl)(4-((4-aminobutan-2-yl)amino)butyl)carbamate trihydrochloride], the “% Encapsulation (Ribogreen)” value in data set [1] (setting [6]) came out at 99.7%. Moreover, in data set [2] (setting [6]), the “Diameter (nm)” value was determined as 77 nm and the PDI is 0.23. The “Average Relative Light Units ± Standard Deviation” value in the data set on HeLa cells [4] is 20665.4 ± 7510.5 Relative Light Units.

For `CC[C@H](CC[C@@H](C)[C@H]1CC[C@H]2[C@@H]3CC=C4C[C@@H](OC(=O)N(CCCCNCC(F)(F)CN)CC(F)(F)CN)CC[C@]4(C)[C@H]3CC[C@]12C)C(C)C` [SA116, (3S,8S,9S,10R,13R,14S,17R)-17-((2R,5R)-5-ethyl-6-methylheptan-2-yl)-10,13-dimethyl-2,3,4,7,8,9,10,11,12,13,14,15,16,17-tetradecahydro-1H-cyclopenta[a]phenanthren-3-yl (3-amino-2,2-difluoropropyl)(4-((3-amino-2,2-difluoropropyl)amino)butyl)carbamate trihydrochloride], in data set [1] (setting [6]), the “% Encapsulation (Ribogreen)” value came to 97.6%. In addition, in data set [2] (setting [6]), the “Diameter (nm)” value is 73 nm and the PDI worked out at 0.20. For the same compound, in the data set on HeLa cells [4], the “Average Relative Light Units ± Standard Deviation” value was found to be 110.9 ± 26.9 Relative Light Units.

With `CC(C)CCC[C@@H](C)[C@H]1CC[C@H]2[C@@H]3CC=C4C[C@@H](OC(=O)CCCC(=O)N(CCCCNCCC(C)(C)N)CCC(C)(C)N)CC[C@]4(C)[C@H]3CC[C@]12C` [SA121, (3S,8S,9S,10R,13R,14S,17R)-10,13-dimethyl-17-((R)-6-methylheptan-2-yl)-2,3,4,7,8,9,10,11,12,13,14,15,16,17-tetradecahydro-1H-cyclopenta[a]phenanthren-3-yl 5-((3-amino-3-methylbutyl)(4-((3-amino-3-methylbutyl)amino)butyl)amino)-5-oxopentanoate trihydrochloride], the “% Encapsulation (Ribogreen)” value in data set [1] (setting [5]) is listed as 97.4%. In addition, in data set [2] (setting [5]), the “Diameter (nm)” value is recorded as 79.2 nm and the PDI was determined as 0.14. Further, the “Average fold-change in CFTR signal intensity per cell compared to buffer control ± standard deviation” value in the data set on HeLa cells [3] came out at 16.2 ± 1.8 fold-change.

Regarding `CC(C)CCC[C@@H](C)[C@H]1CC[C@H]2[C@@H]3CC=C4C[C@@H](OC(=O)CN(CCCCCCCCN)C(=O)[C@@H](N)CCCCN)CC[C@]4(C)[C@H]3CC[C@]12C.Cl.Cl.Cl` [SA130, (3S,8S,9S,10R,13R,14S,17R)-10,13-dimethyl-17-((R)-6-methylheptan-2-yl)-2,3,4,7,8,9,10,11,12,13,14,15,16,17-tetradecahydro-1H-cyclopenta[a]phenanthren-3-yl N-(L-lysyl)-N-(8-aminooctyl)glycinate trihydrochloride], the “% Encapsulation (Ribogreen)” value in data set [1] (setting [5]) was found to be 95.7%. In data set [2] (setting [5]), the “Diameter (nm)” value was 85.7 nm and the PDI amounted to 0.18. For the same compound, in the data set on HeLa cells [3], the “Average fold-change in CFTR signal intensity per cell compared to buffer control ± standard deviation” value came out at 1.0 ± 0 fold-change.

`CC[C@H](CC[C@@H](C)[C@H]1CC[C@H]2[C@@H]3CC=C4C[C@@H](OC(=O)N(CCCCNC)CCCNC)CC[C@]4(C)[C@H]3CC[C@]12C)C(C)C` [SA180, (3S,8S,9S,10R,13R,14S,17R)-17-((2R,5R)-5-ethyl-6-methylheptan-2-yl)-10,13-dimethyl-2,3,4,7,8,9,10,11,12,13,14,15,16,17-tetradecahydro-1H-cyclopenta[a]phenanthren-3-yl (4-(methylamino)butyl)(3-(methylamino)propyl)carbamate dihydrochloride]: in data set [1] (setting [6]), the “% Encapsulation (Ribogreen)” value was 98.7%. Further, in data set [2] (setting [6]), the “Diameter (nm)” value worked out at 76 nm and the PDI is 0.17. The “Average Relative Light Units ± Standard Deviation” value in the data set on HeLa cells [4] turned out to be 35476 ± 6770.8 Relative Light Units.
